Reference: US8691865B2 (AbbVie Inc., priority 2008, dated 2014)

target: human Cav2.2 (Homo sapiens, UniProt Q00975); test: Assessment of calcium channel activity using FLIPR (Ca2+ influx in IMR32 cells); type: cell-based; conditions: not given
Protocol: (i) In Vitro Methods—Assessment of Calcium Channel Activity Using FLIPR:
The IMR32 cells were maintained in MEM media containing 10% (v/v) FBS, 1% (v/v) antibiotic/antimitotic, 1% (v/v) sodium pyruvate and 1% (v/v) MEM NEAA. Following dissociation in 0.05% (v/v) trypsin/EDTA, cells were seeded into black 1×96-well plates (Corning Cellbind) at a density of 1−1.2×10^5 cells/well and incubated in the maintenance media above for 48 hours at 37° C. […] To determine the IC50 values, the percent inhibition of the compound at each concentration was determined relative to the activity in the absence of inhibitor, and data was fitted using non-linear regression sigmoidal dose response curve analysis with GraphPad Prism®.

Sequence of human Cav2.2 (Q00975 whole entry): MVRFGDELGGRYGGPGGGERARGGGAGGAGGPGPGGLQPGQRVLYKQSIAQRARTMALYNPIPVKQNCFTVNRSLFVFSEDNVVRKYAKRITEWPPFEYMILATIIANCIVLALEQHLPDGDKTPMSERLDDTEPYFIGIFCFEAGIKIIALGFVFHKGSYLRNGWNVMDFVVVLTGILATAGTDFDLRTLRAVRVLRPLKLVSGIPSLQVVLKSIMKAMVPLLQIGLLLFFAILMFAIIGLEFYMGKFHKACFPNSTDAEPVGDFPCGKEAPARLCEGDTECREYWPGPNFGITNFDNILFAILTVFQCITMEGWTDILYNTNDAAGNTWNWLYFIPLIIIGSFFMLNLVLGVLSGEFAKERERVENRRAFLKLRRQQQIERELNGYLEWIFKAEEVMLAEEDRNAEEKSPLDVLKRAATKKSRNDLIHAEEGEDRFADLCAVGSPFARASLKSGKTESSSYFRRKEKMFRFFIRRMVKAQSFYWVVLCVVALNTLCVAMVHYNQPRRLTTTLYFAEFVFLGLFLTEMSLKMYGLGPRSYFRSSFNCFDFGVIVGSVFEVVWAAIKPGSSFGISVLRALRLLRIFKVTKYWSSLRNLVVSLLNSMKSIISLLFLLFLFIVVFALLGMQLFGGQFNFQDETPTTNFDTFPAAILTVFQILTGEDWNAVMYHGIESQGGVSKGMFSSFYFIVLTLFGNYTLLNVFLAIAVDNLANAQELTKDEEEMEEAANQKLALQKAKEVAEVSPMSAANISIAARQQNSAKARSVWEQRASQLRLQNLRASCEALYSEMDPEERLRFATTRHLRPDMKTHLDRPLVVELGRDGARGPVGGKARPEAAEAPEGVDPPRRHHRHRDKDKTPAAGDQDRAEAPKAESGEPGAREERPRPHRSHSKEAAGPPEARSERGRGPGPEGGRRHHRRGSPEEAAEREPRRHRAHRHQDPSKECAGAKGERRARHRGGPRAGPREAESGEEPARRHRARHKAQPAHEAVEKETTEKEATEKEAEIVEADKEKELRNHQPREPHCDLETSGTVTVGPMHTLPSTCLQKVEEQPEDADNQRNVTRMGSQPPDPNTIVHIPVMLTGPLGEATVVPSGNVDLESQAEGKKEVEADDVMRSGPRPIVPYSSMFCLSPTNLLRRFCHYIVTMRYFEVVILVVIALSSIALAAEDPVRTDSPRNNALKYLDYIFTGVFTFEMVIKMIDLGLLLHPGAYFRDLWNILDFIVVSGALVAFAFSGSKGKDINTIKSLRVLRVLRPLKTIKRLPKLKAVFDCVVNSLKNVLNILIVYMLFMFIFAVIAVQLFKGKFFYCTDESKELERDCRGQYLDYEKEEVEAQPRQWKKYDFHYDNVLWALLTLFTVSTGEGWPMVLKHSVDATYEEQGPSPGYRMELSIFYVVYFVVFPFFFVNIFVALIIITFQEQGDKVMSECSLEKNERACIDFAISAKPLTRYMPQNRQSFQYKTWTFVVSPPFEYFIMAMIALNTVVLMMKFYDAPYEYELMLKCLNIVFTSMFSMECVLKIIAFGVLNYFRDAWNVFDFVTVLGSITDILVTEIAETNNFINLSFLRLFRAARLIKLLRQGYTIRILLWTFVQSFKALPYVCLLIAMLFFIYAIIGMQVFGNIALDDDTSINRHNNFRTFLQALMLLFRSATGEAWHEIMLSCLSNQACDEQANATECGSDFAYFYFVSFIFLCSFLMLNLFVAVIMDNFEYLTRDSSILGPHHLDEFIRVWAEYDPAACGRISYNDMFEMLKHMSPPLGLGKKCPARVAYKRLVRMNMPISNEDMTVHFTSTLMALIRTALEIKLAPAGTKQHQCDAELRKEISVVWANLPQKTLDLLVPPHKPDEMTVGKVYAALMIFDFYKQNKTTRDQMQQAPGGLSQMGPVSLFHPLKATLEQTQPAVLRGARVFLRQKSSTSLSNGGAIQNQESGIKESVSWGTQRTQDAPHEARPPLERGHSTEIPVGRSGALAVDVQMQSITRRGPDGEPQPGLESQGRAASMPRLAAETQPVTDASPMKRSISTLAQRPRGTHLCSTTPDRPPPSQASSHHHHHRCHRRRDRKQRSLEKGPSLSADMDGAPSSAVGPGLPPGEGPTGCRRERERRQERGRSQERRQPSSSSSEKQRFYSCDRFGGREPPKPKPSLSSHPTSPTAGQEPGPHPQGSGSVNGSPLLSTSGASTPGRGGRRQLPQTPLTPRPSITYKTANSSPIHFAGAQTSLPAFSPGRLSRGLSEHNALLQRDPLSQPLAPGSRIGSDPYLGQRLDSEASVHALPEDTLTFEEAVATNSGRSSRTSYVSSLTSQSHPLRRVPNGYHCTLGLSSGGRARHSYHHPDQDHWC
Sequence of human Cav2.2 (P54289 25-956 partner limits assumed): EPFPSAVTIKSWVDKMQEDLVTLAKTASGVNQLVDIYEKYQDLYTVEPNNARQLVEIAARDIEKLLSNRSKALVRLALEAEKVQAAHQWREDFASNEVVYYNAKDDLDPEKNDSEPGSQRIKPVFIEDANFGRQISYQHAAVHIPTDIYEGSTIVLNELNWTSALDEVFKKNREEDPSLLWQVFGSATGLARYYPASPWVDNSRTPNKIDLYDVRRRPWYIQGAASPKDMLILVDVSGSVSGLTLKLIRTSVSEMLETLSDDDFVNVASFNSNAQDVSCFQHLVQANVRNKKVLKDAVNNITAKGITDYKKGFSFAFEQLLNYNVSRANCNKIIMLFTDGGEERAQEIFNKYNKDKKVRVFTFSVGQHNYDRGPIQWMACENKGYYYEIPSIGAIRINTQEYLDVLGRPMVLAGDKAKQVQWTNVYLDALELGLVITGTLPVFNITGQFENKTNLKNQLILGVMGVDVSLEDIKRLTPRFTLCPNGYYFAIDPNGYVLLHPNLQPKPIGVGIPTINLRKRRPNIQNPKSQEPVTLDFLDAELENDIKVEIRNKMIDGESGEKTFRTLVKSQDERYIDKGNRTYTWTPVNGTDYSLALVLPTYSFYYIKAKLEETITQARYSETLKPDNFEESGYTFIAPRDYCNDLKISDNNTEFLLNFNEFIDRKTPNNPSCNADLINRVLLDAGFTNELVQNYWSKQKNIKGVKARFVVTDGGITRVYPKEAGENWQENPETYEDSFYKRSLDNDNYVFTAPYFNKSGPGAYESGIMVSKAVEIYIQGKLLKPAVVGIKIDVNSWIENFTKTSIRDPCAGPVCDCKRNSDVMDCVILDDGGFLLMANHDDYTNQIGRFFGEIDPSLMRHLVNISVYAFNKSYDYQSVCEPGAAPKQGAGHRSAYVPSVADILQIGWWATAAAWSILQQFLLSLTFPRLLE
Sequence of human Cav2.2 (P54289 957-1103 partner limits assumed): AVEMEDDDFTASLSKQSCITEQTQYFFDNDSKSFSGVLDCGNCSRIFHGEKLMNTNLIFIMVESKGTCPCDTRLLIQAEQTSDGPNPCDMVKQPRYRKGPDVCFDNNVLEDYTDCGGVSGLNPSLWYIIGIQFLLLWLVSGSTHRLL
Sequence of human Cav2.2 (P54284 whole entry partner): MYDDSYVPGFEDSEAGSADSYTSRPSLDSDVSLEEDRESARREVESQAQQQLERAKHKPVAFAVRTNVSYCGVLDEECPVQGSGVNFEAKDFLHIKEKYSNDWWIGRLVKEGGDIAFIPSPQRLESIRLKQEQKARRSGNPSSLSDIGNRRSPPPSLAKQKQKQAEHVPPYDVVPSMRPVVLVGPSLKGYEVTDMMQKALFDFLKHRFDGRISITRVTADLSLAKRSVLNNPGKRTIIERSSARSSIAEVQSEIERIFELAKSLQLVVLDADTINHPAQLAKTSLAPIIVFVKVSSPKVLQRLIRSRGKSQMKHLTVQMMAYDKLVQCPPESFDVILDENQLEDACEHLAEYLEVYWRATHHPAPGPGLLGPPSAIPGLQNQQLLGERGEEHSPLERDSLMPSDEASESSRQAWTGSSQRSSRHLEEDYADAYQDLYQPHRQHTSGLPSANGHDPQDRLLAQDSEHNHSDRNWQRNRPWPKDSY

Row | IC50 [µM] | SMILES
1 | > 30 | CN[C@H](C(=O)N[C@@H]1CC[C@H]2CN(Cc3ccccc3)C[C@H]21)C(C)C [Example 351, N^1-[(3aS,4R,6aR)-2-benzyloctahydrocyclopenta[c]pyrrol-4-yl]-N^2-methyl-L-valinamide]
2 | > 30 | CCC[C@H](NC)C(=O)N[C@H]1CC[C@@H]2CN(S(=O)(=O)c3ccc(OC)c(OC)c3)C[C@@H]21 [Example 545, N^1-{(3aR,4S,6aS)-2-[(3,4-dimethoxyphenyl)sulfonyl]octahydrocyclopenta[c]pyrrol-4-yl}-N^2-methyl-L-norvalinamide]
3 | 5.36 | CCCC(C(=O)NC1CCC2CN(Cc3ccc(F)cc3)CC21)N(C)C(=O)OC(C)(C)C (single isomer, unassigned) [Example 315]
4 | 1.12 | CC(C)C[C@H](N[C@H]1CC[C@@H]2CN(c3cccc(C(F)(F)F)n3)C[C@@H]21)C(N)=O [Example 706, N^2-{(3aR,4S,6aS)-2-[6-(trifluoromethyl)pyridin-2-yl]octahydrocyclopenta[c]pyrrol-4-yl}-L-leucinamide]
5 | 1.1 | COc1ccc2[nH]cc(CN[C@H]3CC[C@@H]4CN(c5cccc(C(F)(F)F)n5)C[C@@H]43)c2c1 [Example 685, (3aR,4S,6aS)-N-[(5-methoxy-1H-indol-3-yl)methyl]-2-[6-(trifluoromethyl)pyridin-2-yl]octahydrocyclopenta[c]pyrrol-4-amine]
6 | 1.48 | CN[C@H](C(=O)N[C@H]1CC[C@@H]2CN(S(=O)(=O)c3cccc(C(F)(F)F)c3)C[C@@H]21)C(C)C [Example 389, N^2-methyl-N^1-((3aR,4S,6aS)-2-{[3-(trifluoromethyl)phenyl]sulfonyl}octahydrocyclopenta[c]pyrrol-4-yl)-L-valinamide]
7 | 8.26 | O=C(N[C@H]1CC[C@@H]2CN(c3ccc(C(F)(F)F)cc3)C[C@@H]21)[C@@H]1C[C@@H](F)CN1 [Example 781, (4R)-4-fluoro-N-{(3aR,4S,6aS)-2-[4-(trifluoromethyl)phenyl]octahydrocyclopenta[c]pyrrol-4-yl}-L-prolinamide]

same assay, conditions: read-out: IC50 (μM) or percent inhibition (* indicates 3 minute incubation, otherwise 60 minute); IC50; 60 minute pre-incubation with compound; IMR32 cells, 80 mM KCl depolarization

Row | SMILES | IC50 [µM]
8 | CC(C)C(C(=O)N[C@H]1CC[C@@H]2CN(Cc3ccccc3)C[C@@H]21)c1ccccc1 (stereo partly drawn) [Example 35, N-[(3aR,4S,6aS)-2-benzyloctahydrocyclopenta[c]pyrrol-4-yl]-3-methyl-2-phenylbutanamide] | 3.26
9 | O=C(N[C@H]1CC[C@H]2CN(Cc3ccc(C(F)(F)F)c(F)c3)C[C@H]21)C(C1CCCCC1)C1CCCCC1 [Example 58, 2,2-dicyclohexyl-N-{(3aS,4S,6aR)-2-[3-fluoro-4-(trifluoromethyl)benzyl]octahydrocyclopenta[c]pyrrol-4-yl}acetamide] | 1.35

Other lines, results leading:

Row | IC50 [µM] | SMILES
10 | 23.6 | C[C@H](C(=O)N[C@@H]1CC[C@H]2CN(Cc3ccccc3)C[C@H]21)c1cccc(C(=O)c2ccccc2)c1 (relative stereo) [Example 13, (2S)-2-(3-benzoylphenyl)-N-[(3aS*,4R*,6aR*)-2-benzyloctahydrocyclopenta[c]pyrrol-4-yl]propanamide]
11 | 12.9 | CC(C)C[C@@H](C(=O)N[C@@H]1CC[C@H]2CN(Cc3ccccc3)C[C@H]21)N(C)S(C)(=O)=O [Example 168, N^1-[(3aS,4R,6aR)-2-benzyloctahydrocyclopenta[c]pyrrol-4-yl]-N^2-methyl-N^2-(methylsulfonyl)-L-leucinamide]
12 | 3.32 | CC(C)C[C@@H](C(=O)N[C@H]1CC[C@H]2CN(Cc3ccccc3)C[C@H]21)N(C)C(=O)OC(C)(C)C [Example 239, tert-butyl(S)-1-((3aS,4S,6aR)-2-benzyloctahydrocyclopenta[c]pyrrol-4-ylamino)-4-methyl-1-oxopentan-2-yl(methyl)carbamate]
13 | 1.32 | O=C(N[C@H]1CC[C@H]2CN(CCCc3cccc(Cl)c3)C[C@H]21)C(C1CCCCC1)C1CCCCC1 [Example 67, N-{(3aS,4S,6aR)-2-[3-(3-chlorophenyl)propyl]octahydrocyclopenta[c]pyrrol-4-yl}-2,2-dicyclohexylacetamide]
